Measured values published in patent US20250340538A1, “IMIDAZOLONE DERIVATIVES AS INHIBITORS OF PROTEIN KINASES IN PARTICULAR DYRK1A, CLK1 AND/OR CLK4” (PERHA PHARMACEUTICALS, priority 2021, published 2025).
Read-outs that look alike come from different tables or passages of the source.

How the values were obtained:
Type in all cases: biochemical
CLK1 = biological target: T1, CLK1 (Homo sapiens, UniProt P49759); assay: Radiometric protein kinase assay (33PanQinase Activity Assay), CLK1; conditions: read-out: Potency Class CLK1
T1 construct: GST-fusion or His-tag (not specified per kinase); purchased ProQinase GmbH; host or cells: Sf9 insect cells or E. coli (not specified per kinase)
T1 sequence (P49759 whole entry, the tested form may be a part): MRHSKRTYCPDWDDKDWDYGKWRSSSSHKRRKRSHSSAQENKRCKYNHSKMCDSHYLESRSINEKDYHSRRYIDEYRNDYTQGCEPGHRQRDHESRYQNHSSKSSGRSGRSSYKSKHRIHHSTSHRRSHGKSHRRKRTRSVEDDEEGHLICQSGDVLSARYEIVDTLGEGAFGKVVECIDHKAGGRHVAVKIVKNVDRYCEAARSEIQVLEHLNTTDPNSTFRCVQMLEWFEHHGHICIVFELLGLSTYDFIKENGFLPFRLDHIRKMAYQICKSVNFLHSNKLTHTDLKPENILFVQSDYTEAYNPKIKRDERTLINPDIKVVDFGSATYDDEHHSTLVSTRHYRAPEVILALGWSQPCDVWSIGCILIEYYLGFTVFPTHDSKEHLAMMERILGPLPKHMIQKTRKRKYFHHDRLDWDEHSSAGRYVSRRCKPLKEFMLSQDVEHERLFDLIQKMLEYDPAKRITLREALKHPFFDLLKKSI
Method in brief: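 IC50 values were derived from 10-point dose-response curves (10 μM to 30 nM). Incubation: 60 min, 30 °C, 1% DMSO, radiolabelled ATP.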

CLK2 = biological target: T2, CLK2 (Homo sapiens, UniProt P49760); assay: Radiometric protein kinase assay (33PanQinase Activity Assay), CLK2; conditions: read-out: IC50 on CLK2 (most potent CLK2 inhibitors)
T2 construct: GST-fusion or His-tag (not specified per kinase); purchased ProQinase GmbH; host or cells: Sf9 insect cells or E. coli (not specified per kinase)
T2 sequence (P49760 whole entry, the tested form may be a part): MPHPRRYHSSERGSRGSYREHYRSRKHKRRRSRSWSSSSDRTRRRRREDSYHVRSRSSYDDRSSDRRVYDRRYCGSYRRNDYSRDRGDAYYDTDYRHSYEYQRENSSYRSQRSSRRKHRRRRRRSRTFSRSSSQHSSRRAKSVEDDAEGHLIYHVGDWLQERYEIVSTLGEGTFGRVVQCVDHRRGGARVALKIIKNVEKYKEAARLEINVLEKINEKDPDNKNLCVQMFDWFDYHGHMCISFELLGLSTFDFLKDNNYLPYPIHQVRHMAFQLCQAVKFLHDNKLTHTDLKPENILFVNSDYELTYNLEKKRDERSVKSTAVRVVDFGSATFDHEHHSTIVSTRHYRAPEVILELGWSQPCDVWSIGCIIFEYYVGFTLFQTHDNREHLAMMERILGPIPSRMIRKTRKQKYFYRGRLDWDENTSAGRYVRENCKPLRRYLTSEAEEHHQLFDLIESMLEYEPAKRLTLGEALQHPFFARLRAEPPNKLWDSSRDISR
Experimental: (§1) Assays were performed by ProQinase GmbH (Engesserstr. 4, D-79108 Freiburg, Germany. www.proqinase.com). The IC50 profile of all compounds was determined using 12 protein kinases (CDK2/cyclin E, CK1ε, CLK1, 2, 3, 4, DYRK1A, 1B, 2, 3, 4, GSK3β).
(§2) The compounds were provided as […] in 100% DMSO. Prior to testing, the 1 μM stock solutions were subjected to a serial, semi-logarithmic dilution using 100% DMSO as a solvent. […] In the process, 90 μl H2O were added to each well of each compound dilution plate. To minimize potential precipitation, the H2O was added to each plate only a few minutes before the transfer of the compound solutions into the assay plates. The plate was shaken thoroughly, resulting in a compound dilution plate/10% DMSO.
(§3) For the assays (see below), 5 μL solution from each well of the compound dilution plates/10% DMSO were transferred into the assay plates. The final volume of the assay was 50 μL. All compounds were tested at 10 final assay concentrations in the range from 10 μM to 30 nM. The final DMSO concentration in the reaction cocktails was 1% in all cases.
(§4) All protein kinases provided by ProQinase were expressed in Sf9 insect cells or in E. coli as recombinant GST-fusion proteins or His-tagged proteins, either as full-length or enzymatically active fragments. All kinases were produced from human cDNAs and purified by either GSH-affinity chromatography or immobilized metal. Affinity tags were removed from a number of kinases during purification. The purity of the protein kinases was examined by SDS-PAGE/Coomassie staining, the identity was checked by mass spectroscopy.
(§5) A radiometric protein kinase assay (33PanQinase® Activity Assay) was used for measuring the kinase activity of the 12 protein kinases. All kinase assays were performed in 96-well FlashPlates™ from PerkinElmer (Boston, MA, USA) in a 50 μL reaction volume. The reaction cocktail was pipetted in four steps in the following order: • 25 μL of assay buffer (standard buffer/[γ-^33P]-ATP), • 10 μL of ATP solution (in H2O), • 5 μL of test compound (in 10% DMSO), • 10 μL of enzyme/substrate mixture.
(§6) The reaction cocktails were incubated at 30° C. for 60 minutes. The reaction was stopped with 50 μL of 2% (v/v) H3PO4, plates were aspirated and washed two times with 200 μL 0.9% (w/v) NaCl. Incorporation of ^33Pi was determined with a microplate scintillation counter (Microbeta, Wallac). The IC50 values for all compounds were calculated from the dose response curves
(§7) As a parameter for assay quality, the Z′-factor (Zhang et al., J. Biomol. Screen. 2: 67-73, 1999) for the low and high controls of each assay plate (n=8) was used. ProQinase's criterion for repetition of an assay plate is a Z′-factor below 0.4 (Iversen et al., J. Biomol. Screen. 3: 247-252, 2006).

DYRK1A = biological target: T3, DYRK1A (Homo sapiens, UniProt Q13627); assay: Radiometric protein kinase assay (33PanQinase Activity Assay), DYRK1A; conditions: for IC50: read-out: Potency Class DYRK1A; for Selectivity Class DYRK1A vs. CLK1: ratio of IC50 on CLK1 over IC50 on DYRK1A; for Selectivity Class DYRK1A vs. DYRK1B: ratio of IC50 on DYRK1B over IC50 on DYRK1A
T3 construct: GST-fusion or His-tag (not specified per kinase); purchased ProQinase GmbH; host or cells: Sf9 insect cells or E. coli (not specified per kinase)
Method in brief: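 Recombinant human kinase, expressed in Sf9 or E. coli, in a radiometric [γ-33P]-ATP assay at 30 °C for 60 min. Compounds tested at 10 concentrations from 10 μM to 30 nM, 1% DMSO final. 33Pi incorporation measured by scintillation counting; IC50 from dose-response curves.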

CLK4 = biological target: T4, CLK4 (Homo sapiens, UniProt Q9HAZ1); assay: Radiometric protein kinase assay (33PanQinase Activity Assay), CLK4; conditions: read-out: IC50 on CLK4 (most potent CLK4 inhibitors)
T4 construct: GST-fusion or His-tag (not specified per kinase); purchased ProQinase GmbH; host or cells: Sf9 insect cells or E. coli (not specified per kinase)
T4 sequence (Q9HAZ1 whole entry, the tested form may be a part): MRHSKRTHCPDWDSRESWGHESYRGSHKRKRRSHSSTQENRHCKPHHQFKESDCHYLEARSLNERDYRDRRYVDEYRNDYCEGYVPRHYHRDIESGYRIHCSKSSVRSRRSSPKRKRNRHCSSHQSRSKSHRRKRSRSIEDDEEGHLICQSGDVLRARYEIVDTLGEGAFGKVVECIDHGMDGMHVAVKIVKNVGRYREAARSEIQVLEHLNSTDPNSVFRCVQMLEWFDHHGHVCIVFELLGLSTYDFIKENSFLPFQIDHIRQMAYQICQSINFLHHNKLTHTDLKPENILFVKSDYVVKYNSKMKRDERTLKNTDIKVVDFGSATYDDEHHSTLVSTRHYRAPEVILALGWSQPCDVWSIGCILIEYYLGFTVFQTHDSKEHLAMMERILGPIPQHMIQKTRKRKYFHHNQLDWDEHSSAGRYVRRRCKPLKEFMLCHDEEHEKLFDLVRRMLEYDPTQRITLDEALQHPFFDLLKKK
Experimental: as §1, §2, §3, §4, §5, §6, §7

[1] = class by IC50 on CLK1, from dose-response curves
[2] = class by IC50 on DYRK1A, from dose-response curves

Row | Structure (SMILES) | IC50 (CLK1; [1]) | IC50 (CLK2) | IC50 (DYRK1A; [2]) | Selectivity Class DYRK1A vs. CLK1 (DYRK1A) | Selectivity Class DYRK1A vs. DYRK1B (DYRK1A) | IC50 (CLK1; IC50 class A to E) | IC50 (CLK4) | IC50 (DYRK1A; IC50 class A to E)
1 | O=C1NC(NC23CC4CC(CC(C4)C2)C3)=N/C1=C\c1ccc2nccnc2c1 [Compound 17, (4Z)-2-(1-adamantylamino)-4-(quinoxalin-6-ylmethylene)-1H-imidazol-5-one] | 25 to 50 nM | ≤ 100 nM | 10 to 25 nM | II (ratio between 2 and 10 fold) | II (ratio between 2 and 10 fold) | – | – | –
2 | O=C1NC(NC23CC4CC(CC(C4)C2)C3)=N/C1=C\c1ccc2ncncc2c1 [Compound 68, (4Z)-2-(1-adamantylamino)-4-(quinazolin-6-ylmethylene)-1H-imidazol-5-one] | > 50 nM | – | > 50 nM | III (ratio between 0.5 and 2 fold) | II (ratio between 2 and 10 fold) | – | – | –
3 | COC[C@H](NC1=N/C(=C\c2ccc3ncccc3n2)C(=O)N1)c1ccccc1 [Compound 71, (4Z)-2-[[(1R)-2-methoxy-1-phenyl-ethyl]amino]-4-(1,5-naphthyridin-2-ylmethylene)-1H-imidazol-5-one] | 10 to 25 nM | – | > 50 nM | IV (ratio between 0.1 and 0.5 fold) | II (ratio between 2 and 10 fold) | 10 to 25 nM | ≤ 10 nM | > 50 nM
4 | COC[C@H](NC1=N/C(=C\c2ccc3nnccc3c2)C(=O)N1)c1ccccc1 [Compound 72, (4Z)-4-(cinnolin-6-ylmethylene)-2-[[(1R)-2-methoxy-1-phenyl-ethyl]amino]-1H-imidazol-5-one] | > 50 nM | – | > 50 nM | III (ratio between 0.5 and 2 fold) | III (ratio between 0.5 and 2 fold) | – | – | –
5 | COC[C@H](NC1=N/C(=C\c2ccc3cnncc3c2)C(=O)N1)c1ccccc1 [Compound 73, (4Z)-2-[[(1R)-2-methoxy-1-phenyl-ethyl]amino]-4-(phthalazin-6-ylmethylene)-1H-imidazol-5-one] | > 50 nM | – | > 50 nM | III (ratio between 0.5 and 2 fold) | III (ratio between 0.5 and 2 fold) | – | – | –
6 | O=C1NC(NC2CCCCC2)=N/C1=C\c1ccc2cnccc2c1 [Compound 75, (4Z)-2-(Cyclohexylamino)-4-(6-isoquinolylmethylene)-1H-imidazol-5-one] | > 50 nM | – | > 50 nM | III (ratio between 0.5 and 2 fold) | II (ratio between 2 and 10 fold) | – | – | –
7 | O=C1NC(NC2CCCCC2)=N/C1=C\c1ccc2ncncc2c1 [Compound 76, (4Z)-2-(cyclohexylamino)-4-(quinazolin-6-ylmethylene)-1H-imidazol-5-one] | > 50 nM | – | > 50 nM | III (ratio between 0.5 and 2 fold) | II (ratio between 2 and 10 fold) | – | – | –
8 | O=C1NC(NC2CCCCCC2)=N/C1=C\c1ccc2ncncc2c1 [Compound 77, (4Z)-2-(cycloheptylamino)-4-(quinazolin-6-ylmethylene)-1H-imidazol-5-one] | > 50 nM | – | > 50 nM | II (ratio between 2 and 10 fold) | II (ratio between 2 and 10 fold) | – | – | –
9 | COC[C@@H](CC(C)C)NC1=N/C(=C\c2ccc3ncncc3c2)C(=O)N1 [Compound 78, (4Z)-2-[[(1R)-1-(methoxymethyl)-3-methyl-butyl]amino]-4-(quinazolin-6-ylmethylene)-1H-imidazol-5-one] | > 50 nM | – | > 50 nM | II (ratio between 2 and 10 fold) | II (ratio between 2 and 10 fold) | – | – | –
10 | CN1C(=O)/C(=C/c2ccc3nccnc3c2)N=C1NC1CCCCC1 [Compound 82, (5Z)-2-(Cyclohexylamino)-3-methyl-5-(quinoxalin-6-ylmethylene)imidazol-4-one] | > 50 nM | – | > 50 nM | III (ratio between 0.5 and 2 fold) | III (ratio between 0.5 and 2 fold) | – | – | –
11 | CN1C(=O)/C(=C/c2ccc3nccnc3c2)N=C1NC1CCCCCC1 [Compound 83, (5Z)-2-(Cycloheptylamino)-3-methyl-5-(quinoxalin-6-ylmethylene)imidazol-4-one] | > 50 nM | – | > 50 nM | III (ratio between 0.5 and 2 fold) | III (ratio between 0.5 and 2 fold) | – | – | –
12 | CN1C(=O)/C(=C/c2ccc3ncccc3c2)N=C1NC1CCCCC1 [Compound 84, (5Z)-2-(Cyclohexylamino)-3-methyl-5-(quinolin-6-ylmethylene)imidazol-4-one] | > 50 nM | – | > 50 nM | III (ratio between 0.5 and 2 fold) | III (ratio between 0.5 and 2 fold) | – | – | –
13 | CN1C(=O)/C(=C/c2ccc3ncccc3c2)N=C1NC1CCCCCC1 [Compound 85, (5Z)-2-(Cycloheptylamino)-3-methyl-5-(quinolin-6-ylmethylene)imidazol-4-one] | > 50 nM | – | > 50 nM | IV (ratio between 0.1 and 0.5 fold) | III (ratio between 0.5 and 2 fold) | – | – | –
14 | CN1C(=O)/C(=C/c2ccc3cnccc3c2)N=C1NC1CCCCC1 [Compound 86, (5Z)-2-(Cyclohexylamino)-3-methyl-5-(isoquinolin-6-ylmethylene)imidazol-4-one] | > 50 nM | – | > 50 nM | III (ratio between 0.5 and 2 fold) | IV (ratio between 0.1 and 0.5 fold) | – | – | –
15 | CN1C(=O)/C(=C/c2ccc3ncncc3c2)N=C1NC1CCCCC1 [Compound 88, (5Z)-2-(Cyclohexylamino)-3-methyl-5-(quinazolin-6-ylmethylene)imidazol-4-one] | > 50 nM | – | > 50 nM | III (ratio between 0.5 and 2 fold) | III (ratio between 0.5 and 2 fold) | – | – | –
16 | CN1C(=O)/C(=C/c2ccc3ncncc3c2)N=C1NC1CCCCCC1 [Compound 89, (5Z)-2-(Cycloheptylamino)-3-methyl-5-(quinazolin-6-ylmethylene)imidazol-4-one] | > 50 nM | – | > 50 nM | III (ratio between 0.5 and 2 fold) | III (ratio between 0.5 and 2 fold) | – | – | –
